Patent US20250222082A1, “PROTEIN AND PEPTIDE VACCINES TARGETING METHANOGENS” (Arkea Bio Corp., priority 2024, published 2025)
Like-named read-outs stand apart in the source and are kept apart here.

Legend:
[1] = buffer, 24 h
Experimental: (§1) The solution was then placed in an ultrasonic bath for ˜4 hr and then allowed to equilibrate over 24 h.

[2] = system: Mbb. ruminantium, Ms. mazei, and Mm. mobile; details: cited from earlier work
[3] = Adsorbent study: reduction of 3NOP concentration in solution (HPLC 230 nm); details: 0.2 g of adsorbent in 10 mL of 1% 3NOP/H2O; 24 h; control 8.258 mM
Experimental: as §1

[4] = 3NOP pH and temperature stability (HPLC); type: physicochemical; details: 1-month time period, 4-30 C, pH 4-10
Source text: 3NOP pH and Temperature Stability: Confirmed via HPLC over a 1-month time period at temperature between 4-30 C and pH 4-10.

[5] = system: methane production; details: cited from earlier work
[6] = 3NOP volatility (mass loss in open vial); type: physicochemical; details: 500 mg in 5 dram vial open to air, ˜18-24 C, 15-30% RH, 6 days
Experimental: 3NOP Volatility: 500 mg of 3NOP in a 5 dram vial was left open to air at ˜18-24 C at 15-30% RH over the course of 6 days. Average mass loss is ˜0.25% per day.

N=C(N)NCCC[C@H](N)C(=O)O [Arginine]
3NOP concentration remaining in solution ([1]; 50 mg/mL): 19.782 mM

O=S(=O)(O)CCCBr [BPS, 3-bromopropanesulfonate]
sensitivity of methanogens in pure cultures ([2]; up to 250 μmol/L, all three species): resistant

O=C([O-])CC(O)(CC(=O)[O-])C(=O)[O-].[Bi+3] [Bismuth Citrate]
3NOP concentration remaining in solution [3]: 8.072 mM

O=S(=O)([O-])[O-].O=S(=O)([O-])[O-].O=S(=O)([O-])[O-].[Bi+3].[Bi+3] [Bismuth Sulfate]
3NOP concentration remaining in solution [3]: 8.079 mM

O=S(=O)([O-])[O-].[Cu+2] [Copper Sulfate]
3NOP concentration remaining in solution [3]: 7.814 mM

NC(=O)CC[C@H](N)C(=O)O [Glutamine]
3NOP concentration remaining in solution ([1]; 20 mg/mL): 7.588 mM

O=[N+]([O-])OCCCO [Group 3NOP, 3-Nitrooxypropanol]
3NOP pH and Temperature Stability [4]: Confirmed
maximum methane suppression amount ([5]; 60 mg/kg of feed dry matter): 26%/day (Melgar et al., 2020)
3NOP Volatility: average mass loss [6]: ~0.25 % per day

NCCCC[C@H](N)C(=O)O [Lysine]
3NOP concentration remaining in solution ([1]; 50 mg/mL): 18.583 mM

O=[N+]([O-])O [Nitrate]
maximum methane suppression amount ([5]; 5 mM): 5 mM; 43.26% Lin rt al., 2017)
maximum methane suppression amount ([5]; 5 mmol/L): 5 mmol/L; 32.92%
maximum methane suppression amount ([5]; 20 mg/g dry matter): 20 mg/g dry matter; 21%

O=c1[nH]c(=O)c2nccnc2[nH]1 [lumazin, 2,4-pteridinedione]
CH4 production by Mbb. ruminantium, Ms. mazei, and Mm. mobile ([2]; dose-dependent from 0.06 to 0.24 mmol/L): significantly decreased

Cyclodextrin
3NOP concentration remaining in solution [3]: 7.676 mM
